In patent US9855320B2, “Angiogenin for treatment of glaucoma” (CHUNG-ANG UNIVERSITY INDUSTRY-ACADEMIC COOPERATION …, priority 2011, dated 2018):

Key:
IL-1a = assay: Reverse transcription polymerase chain reaction on injured tissue of corneal chemical burn model, IL-1a; format: in vivo, rat; conditions: third day and seventh day after keratoconjunctival chemical injury
Experimental: (§1) Three days, and 1, 2, 4, and 8 weeks after injuring, corneal opacity and neoangiogenesis level were assessed in consideration of images of anterior ocular segment, and on the third day and the seventh day, the respective conjunctiva damaged parts were collected and then subjected to a reverse transcription polymerase chain reaction to assay expression of IL-1a, TGF-β, SDF-1, and caspase-3.
Tissues obtained from chronic intraocular pressure increase model and corneal chemical burn model were frozen, and then cut into small parts by using a fine knife. The tissue parts were treated with 1 ml of TRI reagent (Molecular Research Center, Inc.) and then, tissue and cell were lysed by homogenizer. The respective implication cDNA […] 0.2 mM dNTP, 10×buffer, 10 pmols primer, and 0.2 U Taq polymerase were mixed to obtain a volume of 20 μl, and then, PCR thermal cycler (a machine for PCR) was used for reaction for 5 minutes at 95° C., 40 second at 94° C., 40 seconds at 48 to 64° C., 40 seconds (35 cycles) at 72° C., and 10 minutes at 72° C. The amplified polymerase chain reaction product was identified by 1% agarose gel electrophoresis. β actin was used as a positive control for the polymerase chain reaction, and relative expression morphs of a target gene with respect to β actin expression were compared. […]

[1] = system: corneal chemical burn model; assay: Corneal chemical burn model: corneal opacity and corneal neoangiogenesis on anterior ocular segment images; format: in vivo, rat
Experimental: Regarding 20 eyes of 20 rats, filter paper was cut to a round shape having a diameter of 4 mm and completely wet with NaOH, and then, placed on corneal and conjunctiva with upper corneal limbus therebetween for 6 seconds, and then, the eyes were washed. 10 eyes of the 10 rats were treated with angiogenin 10 μl four times a day at time intervals of 6 hours two days before test, and even after the NaOH injury, treated 4 times a day. The remaining 10 eyes were treated with physiological saline two days before the injury in the same manner as used with angiogenin. Angiogenin and physiological saline were all administered only up to 7 days after injuring.
as §1
On the corneal neoangiogenesis image, the region where blood vessel was grown was divided in the wedge shape at intervals of 1 hour while the corneal peak was used as a reference, and an area thereof was calculated, and the area was calculated according to this equation: A=C/12×3.1416 [r^2−(r−l)^2]. (A: new vessel area, C: time occupied when divided by 12 hours, r: corneal […], and l: vascular grown length)

[2] = from 2 weeks after the injury to 8 weeks

## angiogenin: recombinant human angiogenin (R&D systems); 14.4 kDa single chain protein of 123 amino acids, a ribonuclease inducing angiogenesis
IL-1a
  IL-1a expression compared to the control: less expressed
[1]; [2]
  corneal opacity compared to the control: significantly low
  corneal opacity grade (most of the group): grade 1 or grade 2
[1]; on the second week after injury
  corneal new vessel area: did not change
[1]; up to the seventh day after injury
  corneal opacity compared to the control: no significant difference
